Assay results: patent US10898502B2, “Treatment of diseases using a combination of ultraviolet blood irradiation and antibiotics” (priority 2014, dated 2021)

What was measured:
[1] = Adverse reactions seen in the treated patients; conditions: Example 2 patient; medication discontinued
[2] = human, in vivo
[3] = tested on: MAP; conditions: cited from earlier work
[4] = tested on: M. tuberculosis; conditions: cited from earlier work
[5] = tested on: cathelicidin; conditions: cited from earlier work

NCC1(CC(=O)O)CCCCC1 [Gabapentin]
Tolerability at the lowest recommended dose [1]: very dizzy

Cn1cnc([N+](=O)[O-])c1Sc1ncnc2nc[nH]c12 [azathioprine]
Liver enzymes leading to discontinuation [2]: elevated ALT and AST

Vitamin A
Growth of MAP in vitro [3]: inhibit the growth of MAP

Vitamin D
Proliferation of M. tuberculosis in macrophages [4]: reduce the proliferation
Growth of MAP in vitro [3]: inhibit the growth of MAP
Intracellular production of cathelicidin [5]: induces
